compound: NCC(=O)Nc1ccc(-n2nc(C(F)(F)F)cc2-c2ccc3c(ccc4ccccc43)c2)cc1 + C[C@]1(O)C[C@@H](c2nc(-c3ccc4ccc(-c5ccccc5)nc4c3)c3c(N)nccn32)C1 [Linsitinib] (partner 1 µM); assay: relative viability (nuclei count vs DMSO), 5 days (fraction); higher = more cells survive; details: first compound 0.02 µM
In short: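 For relative viability, nuclei counts in treated wells were divided by those in vehicle wells. Lung cancer cell lines had been pin-tool dosed in 1536-well plates the day after seeding and cultured for 5 days, then fixed and stained in one step (final 0.05% Triton X-100, 1% formaldehyde, 1 ug/ml Hoechst) and imaged at 4×. Doses were one drug alone or a fixed anchor-drug dose plus five library-drug doses (not always all listed) in √10 steps, and values are duplicate-plate medians.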

Q: How did the relative viability turn out when COR-L23 was run?
A: 0.989

Q: Which relative viability does the source give for COR-L 105 here?
A: 0.918

Q: Which relative viability does the source give for IA-LM here?
A: 0.802

Q: How did the relative viability turn out when LOU-NH91 was run?
A: 0.984

Q: With NCI-H2405 as the cell line, how does the relative viability read?
A: 0.91

Q: Which relative viability does the source give for HOP-62 here?
A: 1.14

Q: Which relative viability does the source give for HCC-44 here?
A: 0.648

Q: How did the relative viability turn out when A549 was run?
A: 0.626

Q: For LU99A, which relative viability is on record?
A: 0.556

Q: Which relative viability does the source give for BEN here?
A: 0.885

Q: With HARA as the cell line, how does the relative viability read?
A: 0.935

Q: With HCC-78 as the cell line, how does the relative viability read?
A: 0.572

Q: With NCI-H322M as the cell line, how does the relative viability read?
A: 1.04

Q: Which relative viability does the source give for LCLC-97TM1 here?
A: 0.146

Q: How did the relative viability turn out when NCI-H1299 was run?
A: 0.937

Q: NCI-H1563 was tested. Which relative viability did it give?
A: 1.33

Q: For ABC-1, which relative viability is on record?
A: 0.731

same assay, conditions: first compound 0.06325 µM

Q: How did the relative viability turn out when NCI-H727 was run?
A: 0.275

Q: Which relative viability does the source give for EBC-1 here?
A: 0.856

Q: NCI-H1703 was tested. Which relative viability did it give?
A: 0.781

Q: Which relative viability does the source give for NCI-H1993 here?
A: 0.767

Q: Which relative viability does the source give for SW 1573 here?
A: 0.748

Q: With NCI-H838 as the cell line, how does the relative viability read?
A: 1.01

Q: Which relative viability does the source give for LCLC-103H here?
A: 0.997

Q: NCI-H520 was tested. Which relative viability did it give?
A: 0.904

Q: Which relative viability does the source give for NCI-H2126 here?
A: 0.745

Q: With EMC-BAC-2 as the cell line, how does the relative viability read?
A: 0.848

Q: With NCI-H2085 as the cell line, how does the relative viability read?
A: 0.943

Q: For Calu-6, which relative viability is on record?
A: 0.939

Q: Which relative viability does the source give for HCC-366 here?
A: 0.645

Q: With NCI-H1666 as the cell line, how does the relative viability read?
A: 0.993

Q: With NCI-H596 as the cell line, how does the relative viability read?
A: 1.06

Q: Which relative viability does the source give for LK-2 here?
A: 0.437

Q: NCI-H2087 was tested. Which relative viability did it give?
A: 1.02

Q: SK-MES-1 was tested. Which relative viability did it give?
A: 1.03

Q: For H3255, which relative viability is on record?
A: 0.945

Q: Which relative viability does the source give for COR-L23 here?
A: 0.927

Q: How did the relative viability turn out when COR-L 105 was run?
A: 0.943

Q: With IA-LM as the cell line, how does the relative viability read?
A: 0.39

Q: How did the relative viability turn out when LOU-NH91 was run?
A: 1.04

Q: Which relative viability does the source give for NCI-H2405 here?
A: 1.01

Q: For HOP-62, which relative viability is on record?
A: 0.901

Q: HCC-44 was tested. Which relative viability did it give?
A: 0.688

Q: A549 was tested. Which relative viability did it give?
A: 0.599

Q: How did the relative viability turn out when LU99A was run?
A: 0.571

Q: BEN was tested. Which relative viability did it give?
A: 1.06

Q: How did the relative viability turn out when HARA was run?
A: 1.01

Q: How did the relative viability turn out when HCC-78 was run?
A: 0.563

Q: NCI-H322M was tested. Which relative viability did it give?
A: 0.916

Q: How did the relative viability turn out when LCLC-97TM1 was run?
A: 0.185

Q: For NCI-H1299, which relative viability is on record?
A: 0.971

Q: Which relative viability does the source give for NCI-H1563 here?
A: 1.22

Q: ABC-1 was tested. Which relative viability did it give?
A: 0.917

same assay, conditions: first compound 0.2 µM

Q: NCI-H727 was tested. Which relative viability did it give?
A: 0.377

Q: How did the relative viability turn out when EBC-1 was run?
A: 0.892

Q: With NCI-H1703 as the cell line, how does the relative viability read?
A: 0.52

Q: With NCI-H1993 as the cell line, how does the relative viability read?
A: 0.718

Q: SW 1573 was tested. Which relative viability did it give?
A: 0.863

Q: How did the relative viability turn out when NCI-H838 was run?
A: 1.1

Q: How did the relative viability turn out when LCLC-103H was run?
A: 1.12

Q: With NCI-H520 as the cell line, how does the relative viability read?
A: 1.07

Q: How did the relative viability turn out when NCI-H2126 was run?
A: 0.687

Q: For EMC-BAC-2, which relative viability is on record?
A: 0.853

Q: Which relative viability does the source give for NCI-H2085 here?
A: 1.03

Q: Which relative viability does the source give for Calu-6 here?
A: 1.06

Q: Which relative viability does the source give for HCC-366 here?
A: 0.431

Q: With NCI-H1666 as the cell line, how does the relative viability read?
A: 0.861

Q: With NCI-H596 as the cell line, how does the relative viability read?
A: 0.989

Q: Which relative viability does the source give for LK-2 here?
A: 0.483

Q: NCI-H2087 was tested. Which relative viability did it give?
A: 1.03

Q: SK-MES-1 was tested. Which relative viability did it give?
A: 1.11

Q: With H3255 as the cell line, how does the relative viability read?
A: 0.958

Q: For COR-L23, which relative viability is on record?
A: 1.05

Q: With COR-L 105 as the cell line, how does the relative viability read?
A: 0.98

Q: IA-LM was tested. Which relative viability did it give?
A: 0.558

Q: With LOU-NH91 as the cell line, how does the relative viability read?
A: 0.891

Q: With NCI-H2405 as the cell line, how does the relative viability read?
A: 0.923

Q: Which relative viability does the source give for HOP-62 here?
A: 0.854

Q: For HCC-44, which relative viability is on record?
A: 0.697

Q: A549 was tested. Which relative viability did it give?
A: 0.608

Q: LU99A was tested. Which relative viability did it give?
A: 0.555

Q: How did the relative viability turn out when BEN was run?
A: 0.923

Q: With HARA as the cell line, how does the relative viability read?
A: 1.18

Q: HCC-78 was tested. Which relative viability did it give?
A: 0.498

Q: Which relative viability does the source give for NCI-H322M here?
A: 0.924

Q: With NCI-H1299 as the cell line, how does the relative viability read?
A: 1.05

Q: How did the relative viability turn out when NCI-H1563 was run?
A: 1.2

same assay, conditions: first compound 0.6325 µM

Q: Which relative viability does the source give for NCI-H727 here?
A: 0.352

Q: With EBC-1 as the cell line, how does the relative viability read?
A: 0.899

Q: For NCI-H1703, which relative viability is on record?
A: 0.691

Q: How did the relative viability turn out when NCI-H1993 was run?
A: 0.843

Q: How did the relative viability turn out when SW 1573 was run?
A: 0.846

Q: With NCI-H838 as the cell line, how does the relative viability read?
A: 0.925

Q: For LCLC-103H, which relative viability is on record?
A: 1.11

Q: For NCI-H520, which relative viability is on record?
A: 0.91

Q: With NCI-H2126 as the cell line, how does the relative viability read?
A: 0.664

Q: For EMC-BAC-2, which relative viability is on record?
A: 0.81

Q: For NCI-H2085, which relative viability is on record?
A: 1.03

Q: Calu-6 was tested. Which relative viability did it give?
A: 0.911

Q: With HCC-366 as the cell line, how does the relative viability read?
A: 0.557

Q: Which relative viability does the source give for NCI-H1666 here?
A: 0.912

Q: For NCI-H596, which relative viability is on record?
A: 1.02

Q: LK-2 was tested. Which relative viability did it give?
A: 0.555

Q: With NCI-H2087 as the cell line, how does the relative viability read?
A: 1.1

Q: Which relative viability does the source give for SK-MES-1 here?
A: 0.997

Q: For H3255, which relative viability is on record?
A: 0.961

Q: COR-L23 was tested. Which relative viability did it give?
A: 0.896

Q: COR-L 105 was tested. Which relative viability did it give?
A: 1.02

Q: How did the relative viability turn out when IA-LM was run?
A: 0.706

Q: LOU-NH91 was tested. Which relative viability did it give?
A: 0.959

Q: For NCI-H2405, which relative viability is on record?
A: 0.921

Q: How did the relative viability turn out when HOP-62 was run?
A: 1.03

Q: With HCC-44 as the cell line, how does the relative viability read?
A: 0.632

Q: With A549 as the cell line, how does the relative viability read?
A: 0.579

Q: How did the relative viability turn out when LU99A was run?
A: 0.618

Q: How did the relative viability turn out when BEN was run?
A: 0.861

Q: With HARA as the cell line, how does the relative viability read?
A: 0.965

Q: HCC-78 was tested. Which relative viability did it give?
A: 0.49

Q: Which relative viability does the source give for NCI-H322M here?
A: 0.884

Q: With LCLC-97TM1 as the cell line, how does the relative viability read?
A: 0.198

Q: With NCI-H1299 as the cell line, how does the relative viability read?
A: 0.929

Q: Which relative viability does the source give for NCI-H1563 here?
A: 1.19

Q: Which relative viability does the source give for ABC-1 here?
A: 0.915

same assay, conditions: first compound 2 µM

Q: How did the relative viability turn out when NCI-H727 was run?
A: 0.493

Q: EBC-1 was tested. Which relative viability did it give?
A: 0.895

Q: For NCI-H1703, which relative viability is on record?
A: 0.591

Q: Which relative viability does the source give for NCI-H1993 here?
A: 0.724

Q: With SW 1573 as the cell line, how does the relative viability read?
A: 0.789

Q: How did the relative viability turn out when NCI-H838 was run?
A: 0.881

Q: With LCLC-103H as the cell line, how does the relative viability read?
A: 0.978

Q: NCI-H520 was tested. Which relative viability did it give?
A: 1.13

Q: With NCI-H2126 as the cell line, how does the relative viability read?
A: 0.763

Q: Which relative viability does the source give for EMC-BAC-2 here?
A: 0.821

Q: For NCI-H2085, which relative viability is on record?
A: 0.932

Q: For Calu-6, which relative viability is on record?
A: 0.983

Q: With HCC-366 as the cell line, how does the relative viability read?
A: 0.675

Q: How did the relative viability turn out when NCI-H1666 was run?
A: 0.844

Q: With NCI-H596 as the cell line, how does the relative viability read?
A: 1.04

Q: Which relative viability does the source give for LK-2 here?
A: 0.522

Q: With NCI-H2087 as the cell line, how does the relative viability read?
A: 0.988

Q: How did the relative viability turn out when SK-MES-1 was run?
A: 1.17

Q: With H3255 as the cell line, how does the relative viability read?
A: 0.919

Q: COR-L23 was tested. Which relative viability did it give?
A: 0.95

Q: How did the relative viability turn out when COR-L 105 was run?
A: 1.15

Q: How did the relative viability turn out when IA-LM was run?
A: 0.539

Q: With LOU-NH91 as the cell line, how does the relative viability read?
A: 1.09

Q: Which relative viability does the source give for NCI-H2405 here?
A: 0.971

Q: For HOP-62, which relative viability is on record?
A: 1.05

Q: Which relative viability does the source give for HCC-44 here?
A: 0.652

Q: How did the relative viability turn out when A549 was run?
A: 0.614

Q: Which relative viability does the source give for LU99A here?
A: 0.532

Q: With BEN as the cell line, how does the relative viability read?
A: 0.914

Q: With HARA as the cell line, how does the relative viability read?
A: 0.935

Q: HCC-78 was tested. Which relative viability did it give?
A: 0.541

Q: Which relative viability does the source give for NCI-H322M here?
A: 0.976

Q: With LCLC-97TM1 as the cell line, how does the relative viability read?
A: 0.183

Q: For NCI-H1299, which relative viability is on record?
A: 0.999

Q: NCI-H1563 was tested. Which relative viability did it give?
A: 1.28

Q: Which relative viability does the source give for ABC-1 here?
A: 0.855
